# Source: patent US10669296B2, “LXR agonists and uses thereof” (Rgenix, Inc., priority 2014, dated 2020)
# Tested on: ApoE
# Assay: ApoE gene expression analysis by qRT-PCR in MeWo cancer cells
# Format: cell-based
# Settings: 48 h; for Emax at 1 µM / Emax at 10 µM: read-out: ApoE gene expression in relation to GW3965 at 1 μM (100%)
# Protocol: Cancer cells (MeWo) were treated in presence of drug or control (DMSO) at indicated concentrations for 48 h. RNA was extracted from whole cell lysates using the Total RNA Purification Kit (17200, Norgen, Thorold, Canada). 600 ng of total RNA was then reverse transcribed into cDNA using the Verso cDNA Synthesis Kit (AB-1453/B, Fisher Scientific). 6 ng of the resulting cDNA was then mixed with SYBR green PCR Master Mix (4309155, Applied Biosystems) and the appropriate primers. Each reaction was performed in quadruplicate, and mRNA expression was quantified by performing real-time PCR amplification using a StepOne Plus Real-Time PCR System (Applied Biosystems). GAPDH was used as an endogenous control for normalization. EC50 values were calculated using Prism6 software and plotting expression values versus drug concentration. The following primers were used: [table] The results are shown in relation to GW3965 ApoE expression at 1 μM (i.e. 100%).
Structure (SMILES),"Emax at 1 µM (Homo sapiens, MeWo, 1 μM)","EC50 (Homo sapiens, MeWo)","Emax at 10 µM (Homo sapiens, MeWo, 10 μM)",ApoE gene expression in relation to GW3965 at 1 μM (100%) (1 μM),ApoE gene expression in relation to GW3965 at 1 μM (100%) (10 μM),EC50
"CN(C)C(=O)c1c(F)cc(OCCCN(Cc2cccc(C(F)(F)F)c2Cl)CC(c2ccccc2)c2ccccc2)cc1S(C)(=O)=O [Compound 96, 4-[3-({[2-chloro-3-(trifluoromethyl)phenyl]methyl}(2,2-diphenylethyl)amino)propoxy]-2-fluoro-6-methanesulfonyl-N,N-dimethylbenzamide]",> 40%,–,–,–,–,–
"COC(=O)c1c(F)cc(OCCCN(Cc2cccc(C(F)(F)F)c2Cl)CC(c2ccccc2)c2ccccc2)cc1S(C)(=O)=O [Compound 64, methyl 4-[3-({[2-chloro-3-(trifluoromethyl)phenyl]methyl}(2,2-diphenylethyl)amino)propoxy]-2-fluoro-6-methanesulfonylbenzoate]",> 80%,< 1000 nM,> 80%,–,–,–
"C[C@@H](CN(CCCOc1cc(F)c(CO)c(S(C)(=O)=O)c1)Cc1cccc(C(F)(F)F)c1Cl)c1ccccc1 [Compound 79, {4-[3-({[2-chloro-3-(trifluoromethyl)phenyl]methyl}[(2R)-2-phenylpropyl]amino)propoxy]-2-fluoro-6-methanesulfonylphenyl}methanol]",> 80%,< 1000 nM,> 80%,–,–,–
"C[C@H](CCO[C@@H]1CCCN(S(C)(=O)=O)C1)N(Cc1cccc(C(F)(F)F)c1Cl)CC(c1ccccc1)c1ccccc1 [Compound 30, {[2-chloro-3-(trifluoromethyl)phenyl]methyl}(2,2-diphenylethyl)[(2R)-4-{[(3R)-1-methanesulfonylpiperidin-3-yl]oxy}butan-2-yl]amine]",> 40%,–,> 80%,–,–,–
"CS(=O)(=O)NC(=O)Cc1cccc(OCCCN(Cc2cccc(C(F)(F)F)c2Cl)CC(c2ccccc2)c2ccccc2)c1 [Compound 2, 2-{3-[3-({[2-chloro-3-(trifluoromethyl)phenyl]methyl}(2,2-diphenylethyl)amino)propoxy]phenyl}-N-methanesulfonylacetamide]",> 40%,–,> 40%,–,–,–
"CC(CCN(Cc1cccc(C(F)(F)F)c1Cl)CC(c1ccccc1)c1ccccc1)Oc1cc(F)c(CO)c(S(C)(=O)=O)c1 (stereo not drawn) [Compound 59, (4-{[4-({[2-chloro-3-(trifluoromethyl)phenyl]methyl}(2,2-diphenylethyl)amino)butan-2-yl]oxy}-2-fluoro-6-methanesulfonylphenyl)methanol]",> 40%,< 300 nM,> 40%,–,–,–
"CS(=O)(=O)c1cc(OCCCN(Cc2ccc(F)c(C(F)(F)F)c2)CC(c2ccccc2)c2ccccc2)cc(F)c1CO [Compound 75, (4-{3-[(2,2-diphenylethyl)({[4-fluoro-3-(trifluoromethyl)phenyl]methyl})amino]propoxy}-2-fluoro-6-methanesulfonylphenyl)methanol]",> 40%,–,> 80%,–,–,–
"CS(=O)(=O)N1CC[C@H](OCCCN(Cc2cccc(C(F)(F)F)c2Cl)CC(c2ccccc2)c2ccccc2)C1 [Compound 61, {[2-chloro-3-(trifluoromethyl)phenyl]methyl}(2,2-diphenylethyl)(3-{[(3S)-1-methanesulfonylpyrrolidin-3-yl]oxy}propyl)amine]",> 40%,–,> 80%,–,–,–
"CS(=O)(=O)c1cc(OCCCN(Cc2cccc(C(F)(F)F)c2Cl)CC(c2ccccc2)c2ccccc2)cc(F)c1C(=O)O [Compound 35, 4-[3-({[2-chloro-3-(trifluoromethyl)phenyl]methyl}(2,2-diphenylethyl)amino)propoxy]-2-fluoro-6-methanesulfonylbenzoic acid]",< 40%,< 3000 nM,> 40%,–,–,–
"CS(=O)(=O)c1cc(OCCCN(Cc2cccc(C(F)(F)F)c2F)CC(c2ccccc2)c2ccccc2)cc(F)c1CO [Compound 72, (4-{3-[(2,2-diphenylethyl)({[2-fluoro-3-(trifluoromethyl)phenyl]methyl})amino]propoxy}-2-fluoro-6-methanesulfonylphenyl)methanol]",> 80%,–,> 80%,–,–,–
"CS(=O)(=O)c1cc(OCCCN(Cc2cccc(C(F)(F)F)c2Cl)CC(c2ccccc2)c2ccccc2)cc(F)c1CCO [Compound 91, 2-{4-[3-({[2-chloro-3-(trifluoromethyl)phenyl]methyl}(2,2-diphenylethyl)amino)propoxy]-2-fluoro-6-methanesulfonylphenyl} ethan-1-ol]",> 80%,–,> 40%,–,–,–
"CS(=O)(=O)c1cc(OCCCN(Cc2cccc(C(F)(F)F)c2Cl)CC(c2ccccc2)c2ccccc2)cc(F)c1C=O [Compound 65, 4-[3-({[2-chloro-3-(trifluoromethyl)phenyl]methyl}(2,2-diphenylethyl)amino)propoxy]-2-fluoro-6-methanesulfonyl-benzaldehyde]",> 80%,< 1000 nM,> 80%,–,–,–
"CC(C)(O)c1c(F)cc(OCCCN(Cc2cccc(C(F)(F)F)c2Cl)CC(c2ccccc2)c2ccccc2)cc1S(C)(=O)=O [Compound 60, 2-{4-[3-({[2-chloro-3-(trifluoromethyl)phenyl]methyl}(2,2-diphenylethyl)amino)propoxy]-2-fluoro-6-methanesulfonylphenyl}propan-2-ol]",> 40%,< 300 nM,> 80%,–,–,–
"O=C(O)c1cccc(OCCCN(Cc2cccc(C(F)(F)F)c2Cl)CC(c2ccccc2)c2ccccc2)c1 [Compound 3, 3-[3-({[2-chloro-3-(trifluoromethyl)phenyl]methyl}(2,2-diphenylethyl)amino)propoxy]benzoic acid]",> 40%,–,< 40%,–,–,–
"CS(=O)(=O)c1cc(OCCCN(Cc2ccccc2)Cc2cccc(C(F)(F)F)c2Cl)cc(F)c1CO [Compound 83, (4-{3-[benzyl({[2-chloro-3-(trifluoromethyl)phenyl]methyl})amino]propoxy}-2-fluoro-6-methanesulfonylphenyl) methanol]",> 80%,< 1000 nM,–,–,–,–
"[2H]C([2H])(O)c1c(F)cc(OCCCN(Cc2cccc(C(F)(F)F)c2Cl)CC(c2ccccc2)c2ccccc2)cc1S(C)(=O)=O [Compound 84, {4-[3-({[2-chloro-3-(trifluoromethyl)phenyl]methyl}(2,2-diphenylethyl)amino)propoxy]-2-fluoro-6-methanesulfonylphenyl}(^2H2)methanol]",> 40%,–,> 40%,–,–,–
"CS(=O)(=O)c1cc(OCCCN(Cc2cccc(C(F)(F)F)c2Cl)CC(c2ccccc2)c2ccccc2)cc(F)c1C(N)=O [Compound 90, 4-[3-({[2-chloro-3-(trifluoromethyl)phenyl]methyl}(2,2-diphenylethyl)amino)-propoxy]-2-fluoro-6-methanesulfonylbenzamide]",> 80%,< 1000 nM,–,–,–,–
"CS(=O)(=O)c1cc(OCCCN(Cc2cccc(C(F)(F)F)c2Cl)CC(c2ccccc2)c2ccccc2)cc(F)c1CN [Compound 88, {4-[3-({[2-chloro-3-(trifluoromethyl)phenyl]methyl}(2,2-diphenylethyl)amino)propoxy]-2-fluoro-6-methanesulfonylphenyl}methanamine]",> 80%,–,–,–,–,–
"CS(=O)(=O)N1CCC[C@@H](OCCCN(Cc2cccc(C(F)(F)F)c2Cl)CC(c2ccccc2)c2ccccc2)C1 [Compound 63, {[2-chloro-3-(trifluoromethyl)phenyl]methyl}(2,2-diphenylethyl)(3-{[(3R)-1-methanesulfonylpiperidin-3-yl]oxy}propyl)amine]",–,–,–,+++ (“+++” > 80% ApoE induction),+++ (“+++” > 80% ApoE induction),< 3000 nM
"O=C(O)Cc1cccc(OCCCN(Cc2cccc3c2OC(F)(F)O3)CC(c2ccccc2)c2ccccc2)c1 [Compound 26, 2[3-(3-{[(2,2-difluoro-2H-1,3-benzodioxol-4-yl)methyl](2,2-diphenylethyl)amino}propoxy)phenyl]acetic acid]",< 40%,–,< 40%,–,–,–
"CS(=O)(=O)c1cc(OCCCN(Cc2cccc(C(F)(F)F)c2Cl)CC(c2ccccc2)c2ccccc2)cc(F)c1C(=O)C(F)(F)F [Compound 93, 1-{4-[3-({[2-chloro-3-(trifluoromethyl)phenyl]methyl}(2,2-diphenylethyl)amino)propoxy]-2-fluoro-6-methanesulfonylphenyl}-2,2,2-trifluoroethan-1-one]",< 40%,–,< 40%,–,–,–
"CC(C)(CN(CCCOc1cc(F)c(CO)c(S(C)(=O)=O)c1)Cc1cccc(C(F)(F)F)c1Cl)c1ccccc1 [Compound 82, {4-[3-({[2-chloro-3-(trifluoromethyl)phenyl]methyl}(2-methyl-2-phenylpropyl)amino)propoxy]-2-fluoro-6-methanesulfonylphenyl}methanol]",> 40%,–,–,–,–,–
"O=C1Cc2cc(OCCCN(Cc3cccc(C(F)(F)F)c3Cl)CC(c3ccccc3)c3ccccc3)ccc2CO1 [Compound 6, 6-[3-({[2-chloro-3-(trifluoromethyl)phenyl]methyl}(2,2-diphenylethyl)amino)propoxy]-3,4-dihydro-1H-2-benzopyran-3-one]",> 80%,< 300 nM,> 40%,–,–,–
"CS(=O)(=O)N1CC(OCCCN(Cc2cccc(C(F)(F)F)c2Cl)CC(c2ccccc2)c2ccccc2)C1 [Compound 62, {[2-chloro-3-(trifluoromethyl)phenyl]methyl} (2,2-diphenylethyl){3-[(1-methanesulfonylazetidin-3-yl)oxy]propyl}amine]",> 80%,< 1000 nM,> 80%,–,–,–
